Assay results from patent US7470703B1 (priority 2004, dated 2008).
Where two headings read alike, the source gives them in different places. Marks after values point to notes of the source that are not given here.

Columns and labels:
human α2A-AR [1] = target: T1, human α2A-AR (Homo sapiens, UniProt P08913); test: cell-based
T1 sequence (P08913 1-465): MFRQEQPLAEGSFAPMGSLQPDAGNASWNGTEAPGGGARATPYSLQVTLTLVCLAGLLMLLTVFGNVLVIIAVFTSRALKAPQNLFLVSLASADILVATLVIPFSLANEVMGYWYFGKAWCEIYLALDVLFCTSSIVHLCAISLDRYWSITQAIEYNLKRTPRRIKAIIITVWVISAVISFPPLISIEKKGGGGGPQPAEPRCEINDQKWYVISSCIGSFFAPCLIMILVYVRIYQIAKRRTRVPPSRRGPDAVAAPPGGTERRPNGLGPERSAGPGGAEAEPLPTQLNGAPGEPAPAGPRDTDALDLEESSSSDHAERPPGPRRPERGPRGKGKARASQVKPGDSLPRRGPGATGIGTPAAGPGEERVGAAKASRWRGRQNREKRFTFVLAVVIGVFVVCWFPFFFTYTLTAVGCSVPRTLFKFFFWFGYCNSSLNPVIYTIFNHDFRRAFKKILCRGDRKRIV
Method: (§1) The reporter gene assays were conducted in CHO cells expressing the human α2A- and α2C-AR subtype. The cells were grown to confluence, upon which they were isolated and electroporated in the presence of the plasmid. […] Cells were transiently transfected with the 6 CRE-LUC plasmid (5 μg/100 μl of cell suspension) using electroporation at 150 V, 70 ms, single pulse. Transfected cells were plated into a 96-well microplate at a density of approximately 50,000 cells per well and allowed to grow for 20 hours.
(§2) The assays with both α2A- and α2C-ARs were conducted using the non-subtype selective α2-AR agonist, medetomidine, to block the cAMP changes induced by the adenyl cyclase activator, forskolin. […] Basal values (solvent control) were subtracted from the forskolin values and the resulting forskolin response was used as 100%. Similarly, basal values were subtracted from all other values obtained with ligands, and the data expressed as a percentage luciferase response relative to that of forskolin alone.
(§3) The agonist ligand, medetomidine, was added directly to the medium 20 minutes prior to the addition of forskolin and then allowed to incubate for 4 hours. […] These compounds were added 20 minutes prior to the addition of medetomidine.

human α2C-AR [2] = target: T2, human α2C-AR (Homo sapiens, UniProt P18825); test: cell-based
T2 sequence (P18825 1-462): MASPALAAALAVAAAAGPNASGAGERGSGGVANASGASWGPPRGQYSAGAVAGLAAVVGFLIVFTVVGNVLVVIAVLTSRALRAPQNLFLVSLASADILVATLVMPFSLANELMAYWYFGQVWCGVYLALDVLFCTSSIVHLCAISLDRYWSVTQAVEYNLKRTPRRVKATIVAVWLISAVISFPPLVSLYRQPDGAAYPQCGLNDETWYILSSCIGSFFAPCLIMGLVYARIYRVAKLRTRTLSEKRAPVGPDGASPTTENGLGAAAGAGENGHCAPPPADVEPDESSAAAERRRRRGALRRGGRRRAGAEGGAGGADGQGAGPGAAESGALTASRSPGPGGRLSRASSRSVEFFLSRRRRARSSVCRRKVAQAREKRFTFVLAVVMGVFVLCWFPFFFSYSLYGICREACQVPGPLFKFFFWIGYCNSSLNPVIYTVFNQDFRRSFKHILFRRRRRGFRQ
Method: as §1, §2, §3

mouse cremaster muscle [3] = test: Ex vivo mouse cremaster muscle vasoconstriction model; conditions: for EC50: Mus musculus, read-out: EC50 (vasoconstriction concentration-response)
human α2B-AR = target: T3, human α2B-AR (Homo sapiens, UniProt P18089); test: Radioligand binding ([3H]rauwolscine) in CHO cells expressing human α2B-AR
T3 construct: expressed in transfected cells
T3 sequence (P18089 1-450): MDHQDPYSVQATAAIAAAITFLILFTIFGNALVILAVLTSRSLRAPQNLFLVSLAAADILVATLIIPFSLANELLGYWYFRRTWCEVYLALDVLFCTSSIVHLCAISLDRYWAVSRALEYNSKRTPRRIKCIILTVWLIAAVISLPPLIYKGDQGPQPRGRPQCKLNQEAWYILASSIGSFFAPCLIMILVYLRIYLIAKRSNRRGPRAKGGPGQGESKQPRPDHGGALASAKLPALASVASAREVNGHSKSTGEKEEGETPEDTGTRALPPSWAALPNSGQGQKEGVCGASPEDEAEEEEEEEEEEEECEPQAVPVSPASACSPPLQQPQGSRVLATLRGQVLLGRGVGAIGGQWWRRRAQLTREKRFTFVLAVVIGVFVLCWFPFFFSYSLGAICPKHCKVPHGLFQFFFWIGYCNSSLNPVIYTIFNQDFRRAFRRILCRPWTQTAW
Method: (§4) Radioligand binding studies were conducted in CHO cells expressing homogeneous populations of α2A-, α2B- and α2C-ARs. Similar studies were performed in HEK293 cells expressing homogeneous populations of α1A-, α1B- and α1D-ARs. Briefly, CHO cells were harvested using Ham's F-12 media following trypsinization while HEK293 cells were detached by simple scraping. The cell suspension was centrifuged and the pellet re-suspended in Tris-EDTA buffer, pH 7.4. […] The assays were conducted in a final volume of 2 ml. Non-specific binding was determined in the presence of 10 μM phentolamine. The percentage of specific binding was determined by dividing the difference between the total bound (dpm) and nonspecific bound (dpm) by the total bound (dpm). […] Inhibition of specific binding by the competitors was determined using varying concentrations of the analogs. Incubations were terminated at 60 minutes by rapid filtration over Whatman GF/C glass fiber filters (Maidstone, UK) using a cell harvester (Brandel Inc., Gaithersburg, Md.). The filter discs were washed three times with Tris-EDTA buffer, pH 7.4, at 4° C. The radioactivity was quantified by using a Packard TRI-CARB 2900 TR Liquid Scintillation Analyzer (Packard Instrument Company, CT, USA) and data analyzed using GraphPad Prism (GraphPad Software, San Diego, Calif., USA).
(§5) Scatchard analyses were carried out using varying concentrations of selected radioligands to determine their affinities (KD) and maximal binding characteristics (Bmax). […] The total and nonspecific binding for each concentration was determined in triplicate. The specific binding, at each concentration of the radioligand, was established and plotted as bound ligand versus bound/free ligand and the corresponding KD and Bmax values calculated on each human α-AR subtype. Data are expressed as the mean±S.E.M. of n=6-9 experiments.
(§6) Individual pKi values are used to determine whether there are significant differences among means of the analogs on the three α2-AR subtypes. […] The final data are presented as mean±SEM of n=4 or more experiments.
(§7) Ki and IC50 values were calculated as described above.

human α2A-AR [4] = target: T1, human α2A-AR; test: Radioligand binding ([3H]rauwolscine) in CHO cells expressing human α2A-AR; set-up: expressed in transfected cells
Method: as §4, §5, §6, §7

human α2C-AR [5] = target: T2, human α2C-AR; test: Radioligand binding ([3H]rauwolscine) in CHO cells expressing human α2C-AR; set-up: expressed in transfected cells; conditions: for selectivity in binding to the α2C- versus the α2A-AR / selectivity in binding to the α2C- versus the α2B-AR: from binding affinities; for binding affinity for the α2C-AR greater than on the α1-AR subtypes: comparing Tables 1 and 3
Method: as §4, §5, §6, §7

human α2C-AR [6] = target: T2, human α2C-AR; set-up: expressed in transfected cells; conditions: literature; cited from earlier work
mouse cremaster muscle [7] = test: In vivo mouse cremaster muscle vessel diameter; conditions: intravenous 2 mg/kg, 37° C., n=6
Text: It is expected that this model also adequately represent the vasodilation in humans.

[8] = CHO, read-out: inhibition of forskolin-induced cAMP response (luciferase)
[9] = CHO cells, [3H]rauwolscine competition

For `Cc1cccc(C(C)c2cnc[nH]2)c1C` (stereo not drawn) [medetomidine], the inhibition at 0.01 µM (human α2A-AR [1]; [8]) was 56%, the “increase in cAMP levels, alone (in the absence of forskolin)” value (human α2A-AR [1]; α2A-AR, 10 μM) was 17% and the inhibition at 1 µM (human α2C-AR [2]; [8]) was 70%. The “increase in cAMP levels, alone (in the absence of forskolin)” value (human α2C-AR [2]; α2C-AR, 1 μM) was “did not show an increase in cAMP levels”, the “shift of the curve (to the left) at the lower temperature” value (mouse cremaster muscle [3]; 25° C. vs 37° C.) was 10 fold and the EC50 (mouse cremaster muscle [3]; 25° C.) was 2.15 nM. It also gave an EC50 (mouse cremaster muscle [3]; 37° C.) of 20.4 nM.
With `O=C(O)[C@@H]1[C@H]2C[C@H]3c4[nH]c5ccccc5c4CCN3C[C@@H]2CC[C@@H]1O` [Compound 2, Yohimbinic acid] the “binding at the α2B-AR versus the α2A-AR” value (human α2B-AR) was 46 fold, the “decrease in binding potency at the α2B-AR as compared to yohimbine” value (human α2B-AR) was 2 fold and the Ki (human α2B-AR; CHO cells) was 13.4 nM. The “decrease in binding potency at the α2A-AR as compared to yohimbine” value (human α2A-AR [4]) was 345 fold, the Ki (human α2A-AR [4]; CHO cells) was 616 nM and the “decrease in binding potency at the α2C-AR as compared to yohimbine” value (human α2C-AR [5]) was 20 fold. The Ki (human α2C-AR [5]; CHO cells) was 19.4 nM, the “selectivity in binding to the α2C- versus the α2A-AR” value (human α2C-AR [5]) was “around 32 fold” and the “selectivity in binding to the α2C- versus the α2B-AR” value (human α2C-AR [5]) was “equipotent”.
In the case of `O=C(NCCCNC(=O)C1C(O)CCC2CN3CCc4c([nH]c5ccccc45)C3CC21)C1C(O)CCC2CN3CCc4c([nH]c5ccccc45)C3CC21` (stereo not drawn) [Compound 3], the Ki (human α2B-AR; CHO cells) is reported as 602 nM, the “α2B pKi ± SEM” value (human α2B-AR; [9]) is reported as 6.22 ± 0.03 and the Ki (human α2A-AR [4]; CHO cells) is reported as 158 nM. The “α2A pKi ± SEM” value (human α2A-AR [4]; [9]) was 6.80 ± 0.02^a, the Ki (human α2C-AR [5]; CHO cells) was 8.91 nM and the “α2C pKi ± SEM” value (human α2C-AR [5]; [9]) was 8.05 ± 0.04^b. The “selectivity in binding to the α2C- versus the α2A-AR” value (human α2C-AR [5]) was 18 fold, the “selectivity in binding to the α2C- versus the α2B-AR” value (human α2C-AR [5]) was 68 fold and the “selectivity in binding to the α2C- versus α2A-AR (Lalchandani et al. 2002)” value (human α2C-AR [6]) was 32 fold. The “selectivity in binding to the α2C- versus α2B-AR (Lalchandani et al. 2002)” value (human α2C-AR [6]) was 355 fold.
In the case of “yohimbine benzyl carbamate propyl amine [Compound 7]”, the “mean percent inhibition (of the medetomidine response)” value (human α2A-AR [1]; α2A-AR, test compound 0.1 μM, medetomidine 0.01 μM, forskolin 5 μM) is reported as 54% and the “binding affinity for the α2C-AR greater than on the α1-AR subtypes” value (human α2C-AR [5]) is reported as at least 562 fold.
In the case of `COC(=O)[C@@H]1[C@H]2C[C@H]3c4[nH]c5ccccc5c4CCN3C[C@@H]2CC[C@@H]1O` [Compound 1, Yohimbine], the “reversal of medetomidine induced vasoconstriction” value (mouse cremaster muscle [3]; 30, 100, and 300 nM) is reported as “reversed”, the “increase in vessel diameter” value (mouse cremaster muscle [7]) is reported as 22.14±1.08% and the “binding affinity for the α2C-AR greater than on the α1-AR subtypes” value (human α2C-AR [5]) is reported as “at least 224 fold”.
For [^3H]rauwolscine [[^3H]rauwolsine], the “Bmax α2A” value (human α2A-AR [4]; saturation binding, CHO cells) was 8.20±0.71 pmoles/mg protein and the “Bmax α2C” value (human α2C-AR [5]; saturation binding, CHO cells) was 1.20±0.13 pmoles/mg protein.
